Data as given in patent US5356887A, “Pharmaceutical compositions containing insoluble calcium salts of amino-hydroxybutylidene bisphoshonic acids” (Merck & Co., Inc., priority 1993, dated 1994).
Counter-ions that a name gives are not always drawn. Like-named read-outs stand apart in the source and are kept apart here.

Columns and labels:
[1] = in vivo
immobilized femur [2] = settings: days -2 and -1, 10 days after surgery, n = 5
Description: Immobilization was produced by unilateral hind limb sciatic neurectomy. Ten days after surgery the rats were sacrificed, hind limbs removed, and the femora ashed at 700° C. for 24 hours. Ash weight was determined and the difference between the ash weight of the intact limb and immobilized limb calculated and expressed as the mg difference. Per cent difference was calculated as the % difference in ash weight between the intact and immobilized limb.
(§1) mg Diff = difference in ash weight between the intact femur and the
(§2) se = standard error of the mean
(§3) % Bone Loss = ash weight difference between the intact femur and the
(§4) immobilized femur divided by the ash weight of the intact femur

rat paw = test: Local Irritation Study/Rat Paw Licking Response Test; settings: suspension vs solution of the (ABP)Na salt
immobilized femur [3] = settings: days -4 and -3, 10 days after surgery, n = 5
Description: On day 0 all rats underwent surgery whereby the sciatic nerve of the right hind limb was severed. Ten days following immobilization surgery, the rats were sacrificed and hind limbs removed. The femora were defleshed, maximum femoral length of both femora measured and then placed in a muffle furnace at 700° C. for 24 hours.
as §1, §2, §3, §4

[4] = 0.0001 mg P/kg s.c., monocalcium salt
[5] = 0.001 mg P/kg s.c., monocalcium salt
[6] = 0.01 mg P/kg s.c., monocalcium salt
[7] = 0.1 mg P/kg s.c., monocalcium salt
[8] = 2 × 0.1 mg P/kg s.c., monocalcium salt
[9] = 2 × 1.0 mg P/kg s.c., monocalcium salt
[10] = 2 × 0.1 mg P/kg s.c., monosodium salt
[11] = 0.0001 mg P/kg s.c., monosodium salt
[12] = 0.001 mg P/kg s.c., monosodium salt
[13] = 0.01 mg P/kg s.c., monosodium salt
[14] = 0.1 mg P/kg s.c., monosodium salt

NCCCC(O)(P(=O)(O)O)P(=O)(O)O [(ABP)Ca, [(4-amino-1-hydroxybutylidene)-1,1-bisphosphonic acid] monocalcium salt]
Systemic release of ABP [1]: slow systemic release
Level of the drug in the bloodstream ([1]; sc): never very high
% Bone Loss (immobilized femur [2]; [4]): 9.34%
mg Diff (difference in ash weight between the intact femur and the immobilized femur) (immobilized femur [2]; [4]): 28.70 mg
% Bone Loss (immobilized femur [2]; [5]): 7.69%
mg Diff (difference in ash weight between the intact femur and the immobilized femur) (immobilized femur [2]; [5]): 25.98 mg
% Bone Loss (immobilized femur [2]; [6]): 5.01%
mg Diff (difference in ash weight between the intact femur and the immobilized femur) (immobilized femur [2]; [6]): 16.72 mg
% Bone Loss (immobilized femur [2]; [7]): 4.12%
mg Diff (difference in ash weight between the intact femur and the immobilized femur) (immobilized femur [2]; [7]): 13.24 mg

NCCCC(O)(P(=O)(O)O)P(=O)(O)O [(ABP)2 Ca, di[(4-amino-1-hydroxybutylidene)-1,1-bisphosphonic acid] monocalcium salt]
Paw licking responses and tolerability, in words (rat paw): induced a lower number of responses and were better tolerated than the solution of the (ABP)Na salt
% Bone Loss (immobilized femur [3]; [8]): 1.93%
mg Diff (difference in ash weight between the intact femur and the immobilized femur) (immobilized femur [3]; [8]): 6.50 mg
% Bone Loss (immobilized femur [3]; [9]): 2.09%
mg Diff (difference in ash weight between the intact femur and the immobilized femur) (immobilized femur [3]; [9]): 7.38 mg
% Bone Loss (immobilized femur [2]; [4]): 8.93%
mg Diff (difference in ash weight between the intact femur and the immobilized femur) (immobilized femur [2]; [4]): 29.64 mg
% Bone Loss (immobilized femur [2]; [5]): 6.58%
mg Diff (difference in ash weight between the intact femur and the immobilized femur) (immobilized femur [2]; [5]): 22.00 mg
% Bone Loss (immobilized femur [2]; [6]): 3.64%
mg Diff (difference in ash weight between the intact femur and the immobilized femur) (immobilized femur [2]; [6]): 12.62 mg
% Bone Loss (immobilized femur [2]; [7]): 4.14%
mg Diff (difference in ash weight between the intact femur and the immobilized femur) (immobilized femur [2]; [7]): 11.32 mg

NCCCC(O)(P(=O)(O)O)P(=O)(O)O [(ABP)Na, (4-amino-1-hydroxybutylidene)-1,1-bisphosphonic acid monosodium salt, reference compound]
% Bone Loss (immobilized femur [3]; [10]): 4.68%
mg Diff (difference in ash weight between the intact femur and the immobilized femur) (immobilized femur [3]; [10]): 14.62 mg
Level of the drug in the bloodstream ([1]; iv): high level
% Bone Loss (immobilized femur [2]; [11]): 9.93%
mg Diff (difference in ash weight between the intact femur and the immobilized femur) (immobilized femur [2]; [11]): 31.14 mg
% Bone Loss (immobilized femur [2]; [12]): 5.95%
mg Diff (difference in ash weight between the intact femur and the immobilized femur) (immobilized femur [2]; [12]): 21.32 mg
% Bone Loss (immobilized femur [2]; [13]): 4.90%
mg Diff (difference in ash weight between the intact femur and the immobilized femur) (immobilized femur [2]; [13]): 18.72 mg
% Bone Loss (immobilized femur [2]; [14]): 4.15%
mg Diff (difference in ash weight between the intact femur and the immobilized femur) (immobilized femur [2]; [14]): 14.10 mg

NCCCC(O)(P(=O)(O)O)P(=O)(O)O [(ABP)3 Ca4, tri[(4-amino-1-hydroxybutylidene)-1,1-bisphosphonic acid] tetracalcium salt]
Paw licking responses and tolerability, in words (rat paw): induced a lower number of responses and were better tolerated than the solution of the (ABP)Na salt
% Bone Loss (immobilized femur [3]; 2 × 0.1 mg P/kg s.c.): 2.48%
mg Diff (difference in ash weight between the intact femur and the immobilized femur) (immobilized femur [3]; 2 × 0.1 mg P/kg s.c.): 7.68 mg
% Bone Loss (immobilized femur [3]; 2 × 1.0 mg P/kg s.c.): 1.22%
mg Diff (difference in ash weight between the intact femur and the immobilized femur) (immobilized femur [3]; 2 × 1.0 mg P/kg s.c.): 3.94 mg
